Experiment [1] concerns the target 5-hydroxytryptamine receptor 2A (Rattus norvegicus, UniProt P14842). As to the kind of experiment: Inhibition of [3H]ketanserin binding to 5-hydroxytryptamine 2A receptor rat frontal cortex membrane. It is filed as tissue-based.
A further experiment deals with D(1A) dopamine receptor (Rattus norvegicus, UniProt P18901). The experiment is described as follows: Inhibition of [3H]-SCH- 23390 binding to dopamine receptor D1 rat striatal membrane.
A further experiment is filed under the species Rattus norvegicus. As to the kind of experiment: Value was obtained against serotonin-induced (5-HT2A) contractions in rat aorta rings. To be noted: read-out: pA2 (converted).
A further experiment concerns the target D(2) dopamine receptor (Rattus norvegicus, UniProt P61169). The experiment is described as follows: Inhibition of [3H]-spiperone […] binding to dopamine receptor D2 rat striatal membrane.

Molecules are shown by their SMILES.

Chain of D(1A) dopamine receptor (P18901 whole entry): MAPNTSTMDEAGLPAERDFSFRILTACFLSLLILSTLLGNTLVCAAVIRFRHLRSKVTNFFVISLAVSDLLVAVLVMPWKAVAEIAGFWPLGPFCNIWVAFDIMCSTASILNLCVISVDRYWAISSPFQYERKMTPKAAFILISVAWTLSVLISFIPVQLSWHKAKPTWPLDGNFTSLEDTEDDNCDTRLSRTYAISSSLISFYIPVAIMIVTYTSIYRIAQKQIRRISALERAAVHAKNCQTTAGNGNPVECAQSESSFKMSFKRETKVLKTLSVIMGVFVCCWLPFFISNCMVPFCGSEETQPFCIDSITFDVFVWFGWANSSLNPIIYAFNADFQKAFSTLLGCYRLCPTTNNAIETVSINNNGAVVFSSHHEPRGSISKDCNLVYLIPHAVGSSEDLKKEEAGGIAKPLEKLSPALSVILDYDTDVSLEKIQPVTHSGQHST
Chain of 5-hydroxytryptamine receptor 2A (P14842 whole entry): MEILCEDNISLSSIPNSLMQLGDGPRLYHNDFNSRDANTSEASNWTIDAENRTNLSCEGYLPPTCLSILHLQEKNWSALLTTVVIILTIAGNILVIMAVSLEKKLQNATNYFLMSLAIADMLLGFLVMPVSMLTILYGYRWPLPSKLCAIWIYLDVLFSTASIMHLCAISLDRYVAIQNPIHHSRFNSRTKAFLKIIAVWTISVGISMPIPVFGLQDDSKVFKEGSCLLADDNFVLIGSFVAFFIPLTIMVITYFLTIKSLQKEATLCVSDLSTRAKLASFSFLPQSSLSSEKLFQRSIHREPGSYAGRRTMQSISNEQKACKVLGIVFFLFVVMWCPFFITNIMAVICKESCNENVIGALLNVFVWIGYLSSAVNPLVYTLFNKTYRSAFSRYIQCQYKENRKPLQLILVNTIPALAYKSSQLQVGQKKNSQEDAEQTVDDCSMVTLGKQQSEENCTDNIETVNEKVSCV
Chain of D(2) dopamine receptor (P61169 whole entry): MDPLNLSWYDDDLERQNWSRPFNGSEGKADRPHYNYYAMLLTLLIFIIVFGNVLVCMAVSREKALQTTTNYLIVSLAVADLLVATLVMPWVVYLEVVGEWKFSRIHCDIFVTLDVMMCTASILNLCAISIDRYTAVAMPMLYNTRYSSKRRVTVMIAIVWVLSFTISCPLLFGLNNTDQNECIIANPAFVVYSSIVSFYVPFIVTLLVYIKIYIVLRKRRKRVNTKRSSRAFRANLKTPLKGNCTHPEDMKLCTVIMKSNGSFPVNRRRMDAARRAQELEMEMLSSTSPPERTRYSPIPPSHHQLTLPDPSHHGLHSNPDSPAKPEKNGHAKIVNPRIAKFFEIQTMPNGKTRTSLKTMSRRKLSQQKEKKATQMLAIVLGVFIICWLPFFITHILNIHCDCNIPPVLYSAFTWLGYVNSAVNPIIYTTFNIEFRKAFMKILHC

Take `O=C(c1ccc(F)cc1)C1CCN(CCC2CCCc3ccccc3C2=O)CC1` (stereo not drawn): the figures for the Ki (in experiment [1]; on D(1A) dopamine receptor) were 12.9 nM and 1290 nM, respectively. The Kb in the experiment filed under Rattus norvegicus was 178 nM.

As to `O=C(c1ccc(F)cc1)C1CCN(CCC2Cc3cc(F)ccc3C2=O)CC1` (stereo not drawn), the Ki – broadly, the equilibrium dissociation constant of an inhibitor or competing ligand from its target – in experiment [1] was 3.8 nM; on D(2) dopamine receptor it was 47.9 nM; at D(1A) dopamine receptor, 1100 nM. Moreover, the Kb in the experiment listed under Rattus norvegicus was 7.59 nM.

For `O=C(c1ccc(F)cc1)C1CCN(CCC2Cc3ccccc3C2=O)CC1` (stereo not drawn), the Ki in experiment [1] was 2.51 nM; on D(1A) dopamine receptor, 2820 nM. In the experiment filed under Rattus norvegicus, the Kb is 7.59 nM.

Take `O=C(c1ccc(F)cc1)C1CCN(CCC2CCc3ccccc3C2=O)CC1` (stereo not drawn): the inhibition constant Ki was 7.76 nM in experiment [1] and 1550 nM at D(1A) dopamine receptor. In addition, in the experiment listed under Rattus norvegicus, the Kb was 35.5 nM.

(Values after ChEMBL document CHEMBL1127610, “Synthesis and atypical antipsychotic profile of some 2-(2-piperidinoethyl)benzocycloalkanones as analogues of butyrophenone” (J Med Chem, 1994).)
